From ChEMBL document CHEMBL1201862, “PubChem BioAssay data set” (2004)
Activity calls are given as the source filed them.

Experiments:
[1] = blockers of HIV-1 envelope-mediated cell-cell fusion – cherry-pick, dose response (AID 652057); format: functional, cell-based
[2] = HIV-1 AD8 envelope cell-cell fusion blockers – cherry-pick, dose response (AID 652062); format: functional, cell-based;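 also: luciferase signal from cell-cell fusion driven by HIV-1 clade B AD8 Env; potency is for inhibitors of fusion seen as a drop in luminescence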
[3] = blockers of HIV-1 ZM109 envelope-driven cell-cell fusion – HeLa effector, CEM target cells, luciferase, cherry-pick, dose response (AID 652058); format: functional, cell-based;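 also: luciferase signal from HIV-1 Env mediated cell-cell fusion of effector and target cells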
[4] = viability of HCT116 lacking mutant beta-catenin – cell-based, human colon tumor, dose response (AID 1045); format: functional;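 also: HCT116 colon tumor cells with beta catenin knocked out; cells exposed to compound for 60 hours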
[5] = viability of PTEN-deleted HCT116 cells – cell-based, HCT116 PTEN knockout, dose response (AID 1047); format: functional;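 also: HCT116 colon tumor cells with PTEN knocked out; cells exposed to compound for 60 hours before readout; potency for loss of cell viability measured by luminescence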
[6] = NIH3T3 cell viability loss – ATP luminescence, mouse fibroblasts, counter-screen, dose response (AID 2010); format: functional, cell-based;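 also: cells exposed to compound for about 90 hours before reading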
[7] = microbe, parasite or virus in culture; format: functional; settings: Mycobacterium tuberculosis
[8] = Trypanosoma cruzi growth suppression in host cells – NIH3T3 host cells, beta-gal luminescence, confirmation (AID 2044); format: functional, cell-based;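 also: intracellular parasites grown in NIH/3T3 mouse fibroblasts as host cells; luminescent beta-galactosidase reporter signal from transgenic T. cruzi replicating inside host cells; inhibitors lower the luminescence signal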
[9] = molecular target: T1, Polyadenylate-binding protein 1 (Homo sapiens, UniProt P11940); assay: MLLE binding blockers, Cy5 peptide tracer – biochemical, fluorescence polarization, Cy5-PAM2 peptide, secondary, miRNA deadenylation inhibitor project, dose response (AID 602260); format: functional; settings: read-out: IC50_Mean
T1 sequence (P11940 whole entry, the tested form may be a part): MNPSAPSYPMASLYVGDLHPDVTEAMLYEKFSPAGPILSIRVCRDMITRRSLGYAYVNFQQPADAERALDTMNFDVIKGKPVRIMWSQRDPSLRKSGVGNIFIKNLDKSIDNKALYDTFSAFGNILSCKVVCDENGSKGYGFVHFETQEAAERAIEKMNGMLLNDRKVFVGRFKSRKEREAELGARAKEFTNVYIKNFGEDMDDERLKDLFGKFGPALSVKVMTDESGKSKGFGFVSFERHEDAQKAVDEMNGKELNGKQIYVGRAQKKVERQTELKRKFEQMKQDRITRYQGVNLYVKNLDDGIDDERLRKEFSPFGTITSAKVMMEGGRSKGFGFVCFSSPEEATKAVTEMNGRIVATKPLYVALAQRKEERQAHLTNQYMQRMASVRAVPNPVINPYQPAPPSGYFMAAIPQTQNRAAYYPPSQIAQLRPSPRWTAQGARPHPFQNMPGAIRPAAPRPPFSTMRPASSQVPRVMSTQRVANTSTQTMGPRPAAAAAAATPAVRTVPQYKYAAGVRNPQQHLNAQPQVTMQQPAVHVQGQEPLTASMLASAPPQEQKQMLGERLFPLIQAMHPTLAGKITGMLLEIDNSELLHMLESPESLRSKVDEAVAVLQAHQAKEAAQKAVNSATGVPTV

[10] = molecular target: T1, Polyadenylate-binding protein 1; assay: MLLE domain peptide-binding blockers, IC50 – biochemical, fluorescence polarization, FITC-PAM2 peptide, dose response (AID 602259); format: functional; settings: read-out: IC50_Mean
[11] = molecular target: Voltage-dependent T-type calcium channel subunit alpha-1H (Homo sapiens, UniProt O95180); format: functional;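 also: channel activity triggered by adding a high calcium stimulation buffer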
[12] = intracellular Trypanosoma cruzi inhibitors in host cells – cell-based, plate reader, cherry-pick samples, set 3, dose response (AID 651818); format: functional;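 also: compounds incubated with infected cells for about four days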
[13] = non-specific 3'UTR reporter inhibition in Clone20-Shn3RL – cell-based, Renilla luciferase, cherry-picked, counter-screen for Shn3 inhibitor project, dose response (AID 624133); format: functional
[14] = loss of viability in HepG2 cells – cell-based, CellTiter-Glo, cherry-picked, cytotoxicity control for Shn3 inhibitor project, dose response (AID 624134); format: functional
[15] = reduction of Shn3 3'UTR-driven luciferase in osteoblasts – cell-based, Clone20 osteoblasts, firefly luciferase, cherry-picked, dose response (AID 624132); format: functional;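 also: firefly luciferase luminescence from reporter carrying the Shn3 3'UTR in osteoblasts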
[16] = molecular target: T2, DNA repair protein RAD52 homolog (Homo sapiens, UniProt P43351); format: functional, biochemical
T2 sequence (P43351 whole entry): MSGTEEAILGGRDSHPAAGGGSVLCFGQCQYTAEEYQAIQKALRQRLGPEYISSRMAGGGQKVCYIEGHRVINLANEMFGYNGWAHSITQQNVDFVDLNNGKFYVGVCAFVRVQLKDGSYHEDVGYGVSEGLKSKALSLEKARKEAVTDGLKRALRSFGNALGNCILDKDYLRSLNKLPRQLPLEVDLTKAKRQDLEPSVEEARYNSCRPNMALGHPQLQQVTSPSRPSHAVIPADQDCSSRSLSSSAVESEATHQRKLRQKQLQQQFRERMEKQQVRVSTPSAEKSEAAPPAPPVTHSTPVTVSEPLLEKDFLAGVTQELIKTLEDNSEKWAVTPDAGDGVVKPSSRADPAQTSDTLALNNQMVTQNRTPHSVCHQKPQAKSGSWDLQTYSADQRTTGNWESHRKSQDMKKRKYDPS

[17] = molecular target: Large T antigen (Simian virus 40, UniProt P03070); format: functional, Betapolyomavirus macacae;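 also: Confirmatory-stage PubChem screen for compounds that inhibit SV40 T antigen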
Large T antigen, sequence (P03070 whole entry): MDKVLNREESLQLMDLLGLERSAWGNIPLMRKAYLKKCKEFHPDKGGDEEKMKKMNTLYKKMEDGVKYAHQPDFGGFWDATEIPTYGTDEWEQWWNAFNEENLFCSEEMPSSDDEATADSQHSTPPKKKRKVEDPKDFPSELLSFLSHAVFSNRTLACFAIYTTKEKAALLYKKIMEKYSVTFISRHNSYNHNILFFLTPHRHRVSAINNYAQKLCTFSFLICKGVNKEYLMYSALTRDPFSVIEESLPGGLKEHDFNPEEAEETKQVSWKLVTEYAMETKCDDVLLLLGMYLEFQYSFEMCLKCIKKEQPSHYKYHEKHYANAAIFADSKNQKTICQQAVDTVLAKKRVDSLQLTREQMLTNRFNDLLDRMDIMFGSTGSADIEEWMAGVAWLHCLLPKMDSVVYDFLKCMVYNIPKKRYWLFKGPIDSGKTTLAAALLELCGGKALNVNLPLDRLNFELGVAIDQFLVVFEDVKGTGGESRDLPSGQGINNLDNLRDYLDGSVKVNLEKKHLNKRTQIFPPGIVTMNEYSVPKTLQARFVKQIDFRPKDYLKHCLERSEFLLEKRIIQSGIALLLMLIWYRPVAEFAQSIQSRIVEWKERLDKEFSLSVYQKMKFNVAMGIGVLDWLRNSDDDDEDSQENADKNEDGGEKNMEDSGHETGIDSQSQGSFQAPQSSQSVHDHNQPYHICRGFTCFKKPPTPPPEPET

[18] = molecular target: FAD-linked sulfhydryl oxidase ALR (Homo sapiens, UniProt P55789); assay: ALR-catalysed DTT oxidation blockers – biochemical, H2O2 detection, luminescence, cherry-pick, dose response (AID 493248)
FAD-linked sulfhydryl oxidase ALR, sequence (P55789 whole entry): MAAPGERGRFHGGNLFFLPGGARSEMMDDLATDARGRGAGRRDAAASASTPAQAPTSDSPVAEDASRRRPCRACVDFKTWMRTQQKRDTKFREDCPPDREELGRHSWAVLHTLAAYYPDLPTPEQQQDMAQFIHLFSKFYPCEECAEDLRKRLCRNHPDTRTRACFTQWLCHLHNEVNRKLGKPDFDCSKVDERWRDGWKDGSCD

[19] = molecular target: T3, Protein skinhead-1 (Caenorhabditis elegans, UniProt P34707); format: functional
T3 sequence (P34707 whole entry): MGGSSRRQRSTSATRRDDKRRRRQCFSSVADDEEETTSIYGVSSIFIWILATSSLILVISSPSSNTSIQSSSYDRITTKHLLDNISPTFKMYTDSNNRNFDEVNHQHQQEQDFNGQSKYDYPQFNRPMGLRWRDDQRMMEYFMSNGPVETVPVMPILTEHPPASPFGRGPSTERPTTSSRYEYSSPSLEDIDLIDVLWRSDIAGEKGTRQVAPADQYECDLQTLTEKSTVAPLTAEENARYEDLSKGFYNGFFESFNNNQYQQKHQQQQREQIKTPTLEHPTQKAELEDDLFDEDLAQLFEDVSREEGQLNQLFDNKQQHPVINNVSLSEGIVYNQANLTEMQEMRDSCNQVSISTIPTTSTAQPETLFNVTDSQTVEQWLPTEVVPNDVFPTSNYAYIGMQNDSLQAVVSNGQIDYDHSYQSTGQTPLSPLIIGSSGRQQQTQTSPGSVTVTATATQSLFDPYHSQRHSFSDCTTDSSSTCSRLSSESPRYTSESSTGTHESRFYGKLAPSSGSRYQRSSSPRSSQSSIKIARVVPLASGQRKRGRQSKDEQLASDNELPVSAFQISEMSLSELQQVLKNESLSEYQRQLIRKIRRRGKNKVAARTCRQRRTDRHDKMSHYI

[20] = Luminescence Cell-Based Dose Retest to Confirm Inhibitors of Cancer Stem Cells. [Related pubchem assays (depositor defined):AID2717, AID2721]; format: functional; settings: Homo sapiens
[21] = molecular target: T4, Fatty acid synthase (Homo sapiens, UniProt P49327); assay: inhibition of human FAS-TE enzyme activity – biochemical, endpoint fluorescence intensity, uHTS hits, dose response (AID 624327); format: functional;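 also: fluorescence from hydrolysis of an O-methyl fluorescein acyl ester substrate by the enzyme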
T4 sequence (P49327 whole entry): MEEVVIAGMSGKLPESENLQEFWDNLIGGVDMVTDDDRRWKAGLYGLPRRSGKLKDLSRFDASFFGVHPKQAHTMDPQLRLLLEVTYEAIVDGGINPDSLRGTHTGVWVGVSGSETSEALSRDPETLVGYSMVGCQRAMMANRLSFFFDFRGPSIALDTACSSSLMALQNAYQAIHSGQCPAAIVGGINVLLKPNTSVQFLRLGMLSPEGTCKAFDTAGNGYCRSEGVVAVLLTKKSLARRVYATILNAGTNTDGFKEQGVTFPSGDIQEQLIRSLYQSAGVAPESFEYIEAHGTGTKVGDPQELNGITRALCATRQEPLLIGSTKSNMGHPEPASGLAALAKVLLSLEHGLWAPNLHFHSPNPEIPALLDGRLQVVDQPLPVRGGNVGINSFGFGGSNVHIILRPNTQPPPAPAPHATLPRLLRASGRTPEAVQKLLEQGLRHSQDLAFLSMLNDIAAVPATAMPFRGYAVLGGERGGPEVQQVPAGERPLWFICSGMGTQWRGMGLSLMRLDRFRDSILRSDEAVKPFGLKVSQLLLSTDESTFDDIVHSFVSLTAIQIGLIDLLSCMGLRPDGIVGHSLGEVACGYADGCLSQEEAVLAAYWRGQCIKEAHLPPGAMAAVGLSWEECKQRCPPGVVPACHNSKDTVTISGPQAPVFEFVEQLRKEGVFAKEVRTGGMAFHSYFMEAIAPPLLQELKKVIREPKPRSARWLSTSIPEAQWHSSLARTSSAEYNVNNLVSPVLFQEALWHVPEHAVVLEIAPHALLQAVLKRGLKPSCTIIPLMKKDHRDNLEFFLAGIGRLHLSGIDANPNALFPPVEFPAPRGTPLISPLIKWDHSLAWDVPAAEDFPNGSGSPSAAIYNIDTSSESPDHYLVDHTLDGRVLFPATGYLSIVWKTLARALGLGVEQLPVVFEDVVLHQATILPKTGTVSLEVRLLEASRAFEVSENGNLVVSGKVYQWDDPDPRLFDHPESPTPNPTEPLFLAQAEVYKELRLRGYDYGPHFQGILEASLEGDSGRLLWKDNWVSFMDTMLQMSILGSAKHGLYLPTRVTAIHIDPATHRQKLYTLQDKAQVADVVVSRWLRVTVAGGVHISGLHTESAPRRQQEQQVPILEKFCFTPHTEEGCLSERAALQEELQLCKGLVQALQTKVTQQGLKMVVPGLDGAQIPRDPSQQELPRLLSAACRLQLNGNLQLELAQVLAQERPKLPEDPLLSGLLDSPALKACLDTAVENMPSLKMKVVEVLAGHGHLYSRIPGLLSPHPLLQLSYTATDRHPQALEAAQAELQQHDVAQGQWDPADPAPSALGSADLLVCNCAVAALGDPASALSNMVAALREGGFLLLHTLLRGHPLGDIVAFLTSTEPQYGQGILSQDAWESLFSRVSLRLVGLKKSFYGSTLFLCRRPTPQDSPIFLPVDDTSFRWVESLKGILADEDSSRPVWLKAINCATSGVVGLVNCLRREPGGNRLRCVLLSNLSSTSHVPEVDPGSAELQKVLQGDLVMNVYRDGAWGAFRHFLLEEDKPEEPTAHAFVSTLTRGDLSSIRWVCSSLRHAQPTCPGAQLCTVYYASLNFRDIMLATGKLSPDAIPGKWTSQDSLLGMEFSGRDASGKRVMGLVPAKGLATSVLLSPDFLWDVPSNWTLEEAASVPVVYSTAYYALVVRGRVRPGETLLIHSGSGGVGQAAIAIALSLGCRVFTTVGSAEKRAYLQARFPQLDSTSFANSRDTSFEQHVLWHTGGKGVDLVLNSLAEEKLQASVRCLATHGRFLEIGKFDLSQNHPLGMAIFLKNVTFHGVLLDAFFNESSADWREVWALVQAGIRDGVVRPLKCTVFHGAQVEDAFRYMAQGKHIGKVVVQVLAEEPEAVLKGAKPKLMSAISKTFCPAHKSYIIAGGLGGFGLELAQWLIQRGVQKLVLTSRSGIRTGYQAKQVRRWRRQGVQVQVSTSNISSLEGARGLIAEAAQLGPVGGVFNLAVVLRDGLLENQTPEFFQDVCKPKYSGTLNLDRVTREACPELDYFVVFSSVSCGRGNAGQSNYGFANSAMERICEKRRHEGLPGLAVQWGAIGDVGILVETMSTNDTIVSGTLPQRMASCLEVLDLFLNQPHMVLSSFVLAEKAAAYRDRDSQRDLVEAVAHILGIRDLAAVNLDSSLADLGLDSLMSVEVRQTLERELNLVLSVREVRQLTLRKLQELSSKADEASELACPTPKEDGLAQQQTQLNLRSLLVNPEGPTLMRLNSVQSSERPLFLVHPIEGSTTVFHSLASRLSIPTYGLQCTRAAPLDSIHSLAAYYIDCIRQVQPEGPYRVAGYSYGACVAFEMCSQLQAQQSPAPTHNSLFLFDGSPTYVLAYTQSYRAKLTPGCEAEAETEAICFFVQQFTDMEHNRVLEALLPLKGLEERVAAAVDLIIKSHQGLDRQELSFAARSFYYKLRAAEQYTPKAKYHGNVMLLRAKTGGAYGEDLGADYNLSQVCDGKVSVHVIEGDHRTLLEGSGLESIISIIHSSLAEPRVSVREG

[22] = molecular target: T4, Fatty acid synthase; assay: inhibition of human FAS-TE enzyme activity – biochemical, kinetic fluorescence intensity, dose response (AID 624326); format: functional;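 also: rate of fluorescence rise from hydrolysis of a fluorogenic O-methyl fluorescein ester substrate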
[23] = molecular target: Cytochrome P450 3A4 (Homo sapiens, UniProt P08684);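 also: CYP3A4 tested as one member of a cytochrome P450 panel screen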
Cytochrome P450 3A4, sequence (P08684 whole entry): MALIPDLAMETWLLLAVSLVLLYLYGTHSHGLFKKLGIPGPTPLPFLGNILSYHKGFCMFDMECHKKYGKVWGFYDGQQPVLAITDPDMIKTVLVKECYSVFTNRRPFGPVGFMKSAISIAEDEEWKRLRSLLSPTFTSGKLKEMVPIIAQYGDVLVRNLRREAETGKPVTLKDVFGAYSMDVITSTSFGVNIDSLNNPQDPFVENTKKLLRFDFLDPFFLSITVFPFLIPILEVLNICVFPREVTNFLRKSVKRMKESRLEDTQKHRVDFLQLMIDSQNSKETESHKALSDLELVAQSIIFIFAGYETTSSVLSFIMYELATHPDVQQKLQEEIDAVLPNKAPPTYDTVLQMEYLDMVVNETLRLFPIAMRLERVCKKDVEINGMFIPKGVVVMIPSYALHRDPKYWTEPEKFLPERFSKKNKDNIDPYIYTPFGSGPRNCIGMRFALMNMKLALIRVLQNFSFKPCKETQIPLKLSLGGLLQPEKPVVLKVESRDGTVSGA

[24] = molecular target: T5, Cytochrome P450 1A2 (Homo sapiens, UniProt P05177);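 also: PubChem cytochrome P450 panel assay, CYP1A2 panel member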
T5 sequence (P05177 whole entry): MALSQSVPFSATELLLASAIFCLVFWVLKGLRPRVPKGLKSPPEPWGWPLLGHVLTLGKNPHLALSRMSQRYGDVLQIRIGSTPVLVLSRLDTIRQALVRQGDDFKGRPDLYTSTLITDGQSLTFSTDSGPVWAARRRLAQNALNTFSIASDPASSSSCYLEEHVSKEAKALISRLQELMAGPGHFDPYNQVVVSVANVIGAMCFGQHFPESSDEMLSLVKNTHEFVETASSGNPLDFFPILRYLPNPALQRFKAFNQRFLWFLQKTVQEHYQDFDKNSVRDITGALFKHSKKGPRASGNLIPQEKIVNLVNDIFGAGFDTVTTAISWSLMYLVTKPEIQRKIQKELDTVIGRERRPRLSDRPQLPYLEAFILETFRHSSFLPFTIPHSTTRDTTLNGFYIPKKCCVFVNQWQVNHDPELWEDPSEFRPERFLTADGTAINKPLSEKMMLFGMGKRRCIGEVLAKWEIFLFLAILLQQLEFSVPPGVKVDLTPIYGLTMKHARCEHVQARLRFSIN

COc1ccc(NC(=O)Nc2ccc3c(c2)CC(=O)N([C@@H](C)CO)C[C@H](C)[C@H](CN(C)S(=O)(=O)c2cccs2)O3)cc1
AC50 [1]: 12 µM (active) | AC50 [2]: 27.1 µM (active) | AC50 [3]: 13.2 µM (active)

CCCCCCCCNC(=O)c1cccnc1SCC(=O)Nc1ccc(OC)cc1OC
EC50 [4]: 12.6 µM (active) | EC50 [5]: 12.3 µM (active)

Cc1ccc(C)c(-c2nn(-c3cc(N4CCN(CCO)CC4)ccc3[N+](=O)[O-])c(=O)c3ccccc23)c1
EC50 [6]: > 60 µM (not active) | CC50 [7]: 31.4 µM (active) | EC50 [8]: 2.23 µM (active)

COc1ccccc1OCC(=O)NCCNC(=O)COc1ccccc1OC
IC50 [9]: > 66 µM (inactive) | IC50 [10]: > 66 µM (inactive)

CCN(CC)S(=O)(=O)c1ccc(Cc2ncc(C(F)(F)F)cc2Cl)s1
EC50 [11]: 9.84 µM (active)

C[C@@H]1CCCCO[C@@H](CN(C)Cc2ccc(Cl)c(Cl)c2)[C@@H](C)CN([C@H](C)CO)C(=O)c2cc(NC(=O)Nc3ccccc3)ccc2O1
AC50 [12]: 3.82 µM (active)

Cc1ccc(Cl)cc1N1CCN(C(=O)C2CCC(=O)N(C3CCCCCC3)C2)CC1 (configuration not stated)
AC50 [13]: 3.41 µM (active) | AC50 [14]: 54.8 µM (active) | CC50 [7]: > 40 µM (active) | AC50 [15]: 3.14 µM (active)

CN(C)CCCN(C(=O)c1ccc2c(c1)CCCC2)c1nc2c(F)cccc2s1
AC50 [16]: 35.2 µM (active) | EC50 [4]: 30 µM (active) | EC50 [6]: > 60 µM (not active) | EC50 [5]: 27 µM (active) | EC50 [8]: 0.164 µM (active)

O=C(CCc1ccc(O)c(O)c1)NN=C(S)Nc1ccc(Br)cc1Cl
IC50 [17]: > 100 µM (active)

O=[N+]([O-])c1ccc(C2Oc3ccccc3C3CC(c4ccccc4)=NN32)s1 (configuration not stated)
CC50 [7]: 31.5 µM (active)

Oc1ccc(-c2cn3ccccc3n2)cc1
IC50 [17]: > 100 µM (active) | AC50 [18]: 0.097 µM (active)

Cc1cc(C)n(CCOC(=O)C2C(C=C(Cl)Cl)C2(C)C)n1 (configuration not stated)
EC50 [11]: 4.86 µM (active)

O=C1c2ccccc2C(Nc2cccc(C(F)(F)F)c2)N1Cc1ccco1 (configuration not stated)
EC50 [11]: 3.9 µM (active)

CC1CCN(c2ccccc2NC(=S)NC(=O)c2ccc(-c3cccc([N+](=O)[O-])c3)o2)CC1
AC50 [13]: 3.38 µM (active) | AC50 [14]: > 70 µM (inactive) | IC50 [9]: > 66 µM (inactive) | IC50 [10]: > 66 µM (inactive) | AC50 [15]: 3.07 µM (active)

Cc1c(C(=O)NCCC2=CCCCC2)oc2ccc(S(=O)(=O)N3CCOCC3)cc12
EC50 [4]: 31.7 µM (active) | EC50 [5]: 19.2 µM (active) | IC50 [19]: > 100 µM (inactive)

NCCCC[C@H]1CN=C(N)N1CCC12CC3CC(CC(C3)C1)C2
AC50 [16]: 23.3 µM (active)

CC(C)(C)NCC(O)CON=C1c2ccccc2-c2ccccc21 (configuration not stated)
AC50 [16]: 20.1 µM (active)

C[C@@H]1CN([C@H](C)CO)C(=O)Cc2cc(NC(=O)Nc3ccccc3)ccc2O[C@@H]1CN(C)Cc1ccc(Oc2ccccc2)cc1
AC50 [12]: 3.76 µM (active)

COc1cccc(S(=O)(=O)N(C)C[C@H]2Oc3cc(C#CCC(C)C)ccc3S(=O)(=O)N([C@@H](C)CO)C[C@H]2C)c1
AC50 [1]: 25.1 µM (active) | AC50 [2]: 34.2 µM (active) | AC50 [3]: 10.6 µM (active)

O=C(COc1cccc(C(F)(F)F)c1)N1CCN(c2ccc(O)cc2)CC1
IC50 [17]: 9.68 µM (active) | AC50 [20]: 7.3 µM (active)

Cc1c(Cl)c([N+](=O)[O-])nn1CCCC(=O)Nc1cccc(Cl)c1
IC50 [21]: 17.6 µM (active) | IC50 [22]: 16.2 µM (active)

COc1ccc(S(=O)(=O)N2CCOC2CNC(=O)C(=O)NCCc2c[nH]c3ccccc23)cc1C (configuration not stated)
EC50 [11]: 3.31 µM (active)

C[C@H](CO)N1C[C@H](C)[C@H](CN(C)S(=O)(=O)c2ccccc2)Oc2cc(-c3cccc(F)c3)ccc2S1(=O)=O
AC50 [1]: 11 µM (active) | AC50 [2]: 10.7 µM (active)

CCN1CCN(c2cc(N3CCc4ccccc4C3)c(F)cc2[N+](=O)[O-])CC1
EC50 [4]: 12 µM (active) | EC50 [5]: 12.8 µM (active)

O=C(Nc1ccccc1-c1ccccc1)c1ccc(Br)o1
EC50 [11]: 7.47 µM (active)

COc1ccc(S(=O)(=O)N(C)C[C@H]2Oc3ccc(NS(=O)(=O)c4ccc(C)cc4)cc3CC(=O)N([C@H](C)CO)C[C@H]2C)cc1
AC50 [12]: 3.72 µM (active)

C[C@H]1CN([C@@H](C)CO)C(=O)Cc2cc(NC(=O)Cc3cn(C)c4ccccc34)ccc2O[C@@H]1CN(C)Cc1ccc(-c2ccccc2)cc1
AC50 [12]: 1.72 µM (active)

CC(C)NC(C(=O)Nc1cc(Cl)cc(Cl)c1)c1ccccc1 (configuration not stated)
EC50 [11]: 3.62 µM (active)

NC(=O)OCCSc1nnc(-c2cccc(C(N)=S)c2)o1
IC50 [9]: > 66 µM (inactive) | IC50 [10]: > 66 µM (inactive)

C[C@H]1CN([C@@H](C)CO)C(=O)Cc2cc(NC(=O)Nc3ccc4c(c3)OCO4)ccc2O[C@@H]1CN(C)Cc1ccc(C(=O)Nc2ccccc2N)cc1
AC50 [12]: 2.13 µM (active)

COc1ccc(NC(=O)CSc2ccccc2)cn1
IC50 [9]: 33.4 µM (inactive) | IC50 [10]: 41.7 µM (inactive)

O=[N+]([O-])c1ccc(S(=O)(=O)NN=Cc2ccc(Cl)c(Cl)c2)cc1
IC50 [21]: 1.52 µM (active) | IC50 [22]: 2.68 µM (active)

C[C@H](CO)N1C[C@H](C)[C@@H](CN(C)Cc2ccc(C(F)(F)F)cc2)Oc2c(NC(=O)NC3CCCCC3)cccc2C1=O
AC50 [12]: 3.92 µM (active)

O=C(CN1CCN(C(=O)c2ccco2)CC1)Nc1ccc(Cl)c(C(F)(F)F)c1
EC50 [11]: 3.47 µM (active)

O=c1[nH]c2cc([N+](=O)[O-])c([N+](=O)[O-])cc2[nH]c1=O [DNQX]
IC50 [21]: 8.63 µM (active) | AC50 [23]: 25.1 µM (inconclusive) | IC50 [22]: 6.88 µM (active) | AC50 [24]: 31.6 µM (inconclusive)
